The text below walks through data of patent publication US6624159B2, “Heterocycle carboxamides as antiviral agents” (Pharmacia & Upjohn Company, priority 2000, dated 2003).

Counter-ions that a name gives are not always drawn.

For one data set, the target named is T1, HCMV polymerase (Human cytomegalovirus, UniProt P08546).
T1 construct: made in house; host or cells: recombinant baculovirus-infected SF-9 cells
As to the kind of experiment: HCMV polymerase scintillation proximity assay (modified version). Format: biochemical. Particulars: for IC50: modified SPA assay, compounds diluted in 100% DMSO, 4.5 mM DTT. As for the experimental part: (§1) The HCMV polymerase assay is performed using a scintillation proximity assay (SPA) as described in several references, such as N. D. Cook, et al., Pharmaceutical Manufacturing International, pages 49-53 (1992); K. Takeuchi, Laboratory Practice, September issue (1992); U.S. Pat. No. 4,568,649 (1986); which are incorporated by reference herein. Reactions are performed in 96-well plates. The assay is conducted in 100 μl volume with 5.4 mM HEPES (pH 7.5), 11.7 mM KCl, 4.5 mM MgCl2, 0.36 mg/ml BSA, and 90 nM ^3H-dTTP. Assays are run with and without CHAPS, (3-[(3-Cholamidopropyl)-dimethylammonio]-1-propane-sulfonate) at a final concentration of 2 mM. HCMV polymerase is diluted in enzyme dilution buffer containing 50% glycerol, 250 mM NaCl, 10 mM HEPES (pH 7.5), 100 μg/ml BSA, and 0.01% sodium azide. The HCMV polymerase, which is expressed in recombinant baculovirus-infected SF-9 cells and purified according to literature procedures, is added at 10% (or 10 μl) of the final reaction volume, i.e., 100 μl. Compounds are diluted in 50% DMSO and 10 μl are added to each well. Control wells contain an equivalent concentration of DMSO. Unless noted otherwise, reactions are initiated via the addition of 6 nM biotinylated poly(dA)-oligo(dT) template/primer to reaction mixtures containing the enzyme, substrate, and compounds of interest. Plates are incubated in a 25° C. or 37° C. H2O bath and terminated via the addition of 40 μl/reaction of 0.5 M EDTA (pH 8) per well. Reactions are terminated within the time-frame during which substrate incorporation is linear and varied depending upon the enzyme and conditions used, i.e., 30 min. for HCMV polymerase. Ten μl of streptavidin-SPA beads (20 mg/ml in PBS/10% glycerol) are added following termination of the reaction. Plates are incubated 10 min. at 37° C., then equilibrated to room temperature, and counted on a Packard Topcount. Linear regressions are performed and IC50's are calculated using computer software.
(§2) A modified version of the above HCMV polymerase assay is performed as described above, but with the following changes: Compounds are diluted in 100% DMSO until final dilution into assay buffer. In the previous assay, compounds are diluted in 50% DMSO. 4.5 mM dithiothreitol (DTT) is added to the polymerase buffer.

In the next data set the target is VZV polymerase (Varicella-zoster virus, UniProt P09252). In words: VZV polymerase assay (Table 1). The format is biochemical. As for the experimental part:
[The source words this procedure for another target and says it was used here with some conditions changed.] as §1, §2

In the next data set the target is HSV polymerase (Human herpesvirus 1, UniProt P04293). In words: HSV polymerase assay (Table 1). Format: biochemical.
Chain of HSV polymerase (P04293 whole entry): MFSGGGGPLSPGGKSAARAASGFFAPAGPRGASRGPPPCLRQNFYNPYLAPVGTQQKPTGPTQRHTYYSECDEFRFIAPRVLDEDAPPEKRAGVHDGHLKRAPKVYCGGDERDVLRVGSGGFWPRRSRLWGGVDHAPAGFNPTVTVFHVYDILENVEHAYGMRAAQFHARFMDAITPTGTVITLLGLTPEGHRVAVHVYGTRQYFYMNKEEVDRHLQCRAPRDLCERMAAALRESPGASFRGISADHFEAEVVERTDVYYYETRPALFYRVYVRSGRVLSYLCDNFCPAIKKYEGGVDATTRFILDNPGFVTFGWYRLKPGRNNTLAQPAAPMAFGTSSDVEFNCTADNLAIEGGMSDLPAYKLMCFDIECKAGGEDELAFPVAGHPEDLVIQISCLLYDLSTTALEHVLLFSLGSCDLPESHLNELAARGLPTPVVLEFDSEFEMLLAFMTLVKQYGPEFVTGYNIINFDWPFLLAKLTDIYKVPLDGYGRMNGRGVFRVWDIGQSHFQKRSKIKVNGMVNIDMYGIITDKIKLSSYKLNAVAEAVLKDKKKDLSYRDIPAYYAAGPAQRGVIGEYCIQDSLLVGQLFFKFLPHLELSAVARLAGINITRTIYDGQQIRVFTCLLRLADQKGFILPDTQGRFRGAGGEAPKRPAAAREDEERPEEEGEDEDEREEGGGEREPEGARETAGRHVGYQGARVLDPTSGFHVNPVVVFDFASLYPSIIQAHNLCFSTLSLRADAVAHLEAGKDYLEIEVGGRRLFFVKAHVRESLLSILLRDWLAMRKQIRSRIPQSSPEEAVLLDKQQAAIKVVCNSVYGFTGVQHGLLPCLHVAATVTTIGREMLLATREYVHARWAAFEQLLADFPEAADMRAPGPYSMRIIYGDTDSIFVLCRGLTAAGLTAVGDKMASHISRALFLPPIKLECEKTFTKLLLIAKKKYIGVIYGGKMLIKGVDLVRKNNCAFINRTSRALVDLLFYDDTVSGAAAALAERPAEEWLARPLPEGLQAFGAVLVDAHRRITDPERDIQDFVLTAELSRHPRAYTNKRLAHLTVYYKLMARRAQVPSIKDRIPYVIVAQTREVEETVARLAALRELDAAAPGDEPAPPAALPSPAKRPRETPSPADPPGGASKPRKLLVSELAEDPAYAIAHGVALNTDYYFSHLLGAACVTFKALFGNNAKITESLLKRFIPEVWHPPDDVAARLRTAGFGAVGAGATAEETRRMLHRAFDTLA

Chain of VZV polymerase (P09252 whole entry): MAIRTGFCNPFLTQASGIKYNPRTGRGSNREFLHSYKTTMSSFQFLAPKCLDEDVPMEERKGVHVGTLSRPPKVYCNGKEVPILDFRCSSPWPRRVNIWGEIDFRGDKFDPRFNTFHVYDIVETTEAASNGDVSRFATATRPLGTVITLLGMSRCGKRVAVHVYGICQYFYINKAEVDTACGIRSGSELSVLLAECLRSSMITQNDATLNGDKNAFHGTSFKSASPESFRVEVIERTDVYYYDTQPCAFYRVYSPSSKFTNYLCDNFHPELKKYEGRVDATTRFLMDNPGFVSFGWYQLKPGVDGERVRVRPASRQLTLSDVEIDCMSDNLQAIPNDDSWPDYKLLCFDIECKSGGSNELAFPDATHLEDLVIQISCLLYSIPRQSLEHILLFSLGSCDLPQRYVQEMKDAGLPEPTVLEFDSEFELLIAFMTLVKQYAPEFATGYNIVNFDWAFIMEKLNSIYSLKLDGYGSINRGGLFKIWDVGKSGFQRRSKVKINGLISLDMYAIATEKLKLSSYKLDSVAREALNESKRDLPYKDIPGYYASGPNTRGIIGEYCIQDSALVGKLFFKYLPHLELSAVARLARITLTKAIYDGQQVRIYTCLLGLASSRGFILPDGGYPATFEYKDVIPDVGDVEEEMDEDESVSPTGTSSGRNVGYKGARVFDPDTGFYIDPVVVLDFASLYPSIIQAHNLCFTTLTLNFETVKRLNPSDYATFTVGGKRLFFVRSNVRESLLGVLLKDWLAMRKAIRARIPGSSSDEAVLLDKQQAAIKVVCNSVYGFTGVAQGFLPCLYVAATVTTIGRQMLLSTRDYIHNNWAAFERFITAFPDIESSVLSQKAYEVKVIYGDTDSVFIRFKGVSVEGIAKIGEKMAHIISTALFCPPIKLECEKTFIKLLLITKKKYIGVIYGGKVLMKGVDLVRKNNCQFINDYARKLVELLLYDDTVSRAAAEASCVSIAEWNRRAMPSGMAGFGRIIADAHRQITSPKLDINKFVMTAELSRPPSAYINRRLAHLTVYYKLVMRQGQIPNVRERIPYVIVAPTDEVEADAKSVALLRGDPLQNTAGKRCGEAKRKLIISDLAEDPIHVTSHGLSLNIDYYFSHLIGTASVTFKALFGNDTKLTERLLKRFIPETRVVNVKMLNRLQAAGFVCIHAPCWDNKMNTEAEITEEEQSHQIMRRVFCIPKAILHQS
T1 sequence (P08546 whole entry): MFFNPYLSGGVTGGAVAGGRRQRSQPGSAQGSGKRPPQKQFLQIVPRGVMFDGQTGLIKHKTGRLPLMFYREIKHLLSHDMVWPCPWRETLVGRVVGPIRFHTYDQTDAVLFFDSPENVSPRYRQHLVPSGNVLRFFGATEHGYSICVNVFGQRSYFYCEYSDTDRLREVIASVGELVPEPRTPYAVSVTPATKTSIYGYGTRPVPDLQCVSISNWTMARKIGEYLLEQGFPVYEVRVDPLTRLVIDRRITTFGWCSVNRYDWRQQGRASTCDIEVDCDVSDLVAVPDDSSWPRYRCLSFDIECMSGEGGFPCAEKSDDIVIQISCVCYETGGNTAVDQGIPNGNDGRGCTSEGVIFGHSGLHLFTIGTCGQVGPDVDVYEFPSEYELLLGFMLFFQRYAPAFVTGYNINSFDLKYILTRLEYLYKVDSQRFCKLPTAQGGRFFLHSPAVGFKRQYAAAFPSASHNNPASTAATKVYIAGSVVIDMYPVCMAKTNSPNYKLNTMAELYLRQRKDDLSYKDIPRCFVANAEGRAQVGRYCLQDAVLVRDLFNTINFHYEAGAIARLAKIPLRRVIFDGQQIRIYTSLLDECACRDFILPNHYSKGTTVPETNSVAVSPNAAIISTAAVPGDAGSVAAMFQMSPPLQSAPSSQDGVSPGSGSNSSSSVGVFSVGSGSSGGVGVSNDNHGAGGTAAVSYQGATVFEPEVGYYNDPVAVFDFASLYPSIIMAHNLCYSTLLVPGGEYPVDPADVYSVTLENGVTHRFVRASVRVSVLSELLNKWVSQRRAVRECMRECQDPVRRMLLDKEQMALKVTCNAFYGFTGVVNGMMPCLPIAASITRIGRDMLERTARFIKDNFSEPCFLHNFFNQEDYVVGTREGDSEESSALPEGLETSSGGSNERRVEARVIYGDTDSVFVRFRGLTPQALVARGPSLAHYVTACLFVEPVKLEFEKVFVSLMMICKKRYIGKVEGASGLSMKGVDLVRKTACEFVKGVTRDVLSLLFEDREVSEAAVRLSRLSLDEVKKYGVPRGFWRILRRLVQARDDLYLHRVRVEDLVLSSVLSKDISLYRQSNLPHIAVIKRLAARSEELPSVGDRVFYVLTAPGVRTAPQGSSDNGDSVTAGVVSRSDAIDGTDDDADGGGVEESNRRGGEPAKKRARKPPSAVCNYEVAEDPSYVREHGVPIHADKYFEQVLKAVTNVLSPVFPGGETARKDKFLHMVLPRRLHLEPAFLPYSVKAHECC

The compound `O=C(NCc1ccc(Cl)cc1)c1cn2c3c(cc(CN4CCOCC4)cc3c1=O)OCCC2` [Example 1, N-(4-Chlorobenzyl)-10-(4-morpholinylmethyl)-8-oxo-3,4-dihydro-2H,8H-[1,4]oxazepino [2,3,4-ij]quinoline-7-carboxamide] gave a melting point of 195 to 197 °C. The same compound had an IC50 at HCMV polymerase of 650 nM.
`O=C(NCc1ccc(Cl)cc1)c1cn2c(=O)[nH]c3cc(CN4CCOCC4)cc(c1=O)c32` [Example 2, N-(4-Chlorobenzyl)-8-(4-morpholinylmethyl)-2,6-dioxo-1,2-dihydro-6H-imidazo[4,5,1-ij]quinoline-5-carboxamide]: the IC50 on VZV polymerase was determined as 520 nM; at HCMV polymerase, 770 nM; at HSV polymerase it was 740 nM.
Take `O=C1Cn2cc(C(=O)NCc3ccc(Cl)cc3)c(=O)c3cc(CN4CCOCC4)cc(c32)N1` [Example 3, N-(4-Chlorobenzyl)-9-(4-morpholinylmethyl)-2,7-dioxo-2,3-dihydro-1H,7H-pyrido[1,2,3-de]quinoxaline-6-carboxamide]: the figures for the concentration for half-maximal inhibition (IC50) on VZV polymerase, on HCMV polymerase and against HSV polymerase were 60 nM, 140 nM and less than 510 nM, respectively.
With `O=C(NCc1ccc(Cl)cc1)c1cn2c3c(cc(CN4CCOCC4)cc3c1=O)N=C(NCc1ccc(Cl)cc1)C2` [Example 4, N-(4-Chlorobenzyl)-2-[(4-chlorobenzyl)amino]-9-(4-morpholinylmethyl)-7-oxo-3H,7H-pyrido[1,2,3-de]quinoxaline-6-carboxamide], the results for the IC50 against VZV polymerase and at HCMV polymerase were 180 nM and 160 nM, respectively.
On to `O=C(NCc1ccc(Cl)cc1)c1cn2c3c(cc(C#CCO)cc3c1=O)CC2CO` (stereo not shown) [Example 5, N-(4-Chlorobenzyl)-2-(hydroxymethyl)-8-(3-hydroxy-1-propynyl)-6-oxo-1,2-dihydro-6H-pyrrolo[3,2,1-ij]quinoline-5-carboxamide], for which the melting point lay within 224 to 225 °C. At HCMV polymerase, this compound returned an IC50 of 3200 nM.
For `CC1(C)Cc2cc(C#CCO)cc3c(=O)c(C(=O)NCc4ccc(Cl)cc4)cn1c23` [Example 6, N-(4-Chlorobenzyl)-8-(3-hydroxyprop-1-ynyl)-2,2-dimethyl-6-oxo-1,2-dihydro-6H-pyrrolo[3,2,1-ij]quinoline-5-carboxamide] the same measures were 228 °C (dec.) and 4000 nM.
Consider `O=C(NCc1ccc(Cl)cc1)c1cc2c3c(cc(CN4CCOCC4)cn3c1=O)CCC2` [Example 7, N-(4-Chlorobenzyl)-6-(morpholin-4-ylmethyl)-3-oxo-9,10dihydro-3H,8H-pyrido[3,2,1-ij]quinoline-2-carboxamide], for which the melting point lay in the range of 200 to 201 °C. The compound also came in with an IC50 on HCMV polymerase of 4000 nM.
Consider `CC1C(=O)Nc2cc(CN3CCOCC3)cc3c(=O)c(C(=O)NCc4ccc(Cl)cc4)cn1c23` (stereo not shown) [Example 8, N-(4-Chlorobenzyl)-3-methyl-9-(4-morpholinylmethyl)-2,7-dioxo-2,3-dihydro-1H,7H-pyrido[1,2,3-de]quinoxaline-6-carboxamide hydrobromide], for which the IC50 against VZV polymerase turned out to be 90 nM; at HCMV polymerase, 430 nM; against HSV polymerase, 200 nM.
Regarding `O=C1CCn2cc(C(=O)NCc3ccc(Cl)cc3)c(=O)c3cc(CN4CCOCC4)cc(c32)N1` [Example 9, N-(4-Chlorobenzyl)-10-(4-morpholinylmethyl)-2,8-dioxo-1,2,3,4-tetrahydro-8H-[1,4]diazepino[3,2,1-ij]quinoline-7-carboxamide], the IC50 against VZV polymerase is 170 nM; on HCMV polymerase, 670 nM; at HSV polymerase, 280 nM.
`O=C(NCc1ccc(Cl)cc1)c1cn2c3c(cc(CN4CCOCC4)cc3c1=O)N=C(NCc1ccccc1)C2` [Example 10, 2-(Benzylamino)-N-(4-chlorobenzyl)-9-(4-morpholinylmethyl)-7-oxo-3H,7H-pyrido[1,2,3-de]quinoxaline-6-carboxamide] registered a melting point of 235 to 240 °C. The same compound returned an IC50 against VZV polymerase of 120 nM. The IC50 against HCMV polymerase was 310 nM. Moreover, on HSV polymerase, the midpoint of inhibition, the IC50, lay at 310 nM.
At HCMV polymerase, `CN1C(=O)Cn2cc(C(=O)NCc3ccc(Cl)cc3)c(=O)c3cc(C#CCO)cc1c32` [Example 11, N-(4-Chlorobenzyl)-9-(3-hydroxy-1-propynyl)-1-methyl-2,7-dioxo-2,3-dihydro-1H,7H-pyrido[1,2,3-de]quinoxaline-6-carboxamide] gave an IC50 of 1160 nM.
In the case of `O=C(NCc1ccc(Cl)cc1)c1cn2c3c(cc(CN4CCOCC4)cc3c1=O)CN(Cc1ccccc1)C2` [Example 12, 2-Benzyl-N-(4-chlorobenzyl)-9-(4-morpholinylmethyl)-7-oxo-2,3-dihydro-1H,7H-pyrido[3,2,1-ij]quinazoline-6-carboxamide], the 50% inhibitory concentration (IC50) against HCMV polymerase turned out to be 1670 nM.
For `O=C(NCc1ccc(Cl)cc1)c1cn2c3c(cc(CN4CCOCC4)cc3c1=O)CN(Cc1ccccc1)C2=O` [Example 13, 2-Benzyl-N-(4-chlorobenzyl)-9-(4-morpholinylmethyl)-3,7-dioxo-2,3-dihydro-1H,7H-pyrido[3,2,1-ij]quinazoline-6-carboxamide], the inhibition at 20 µM on HCMV polymerase (at 20 μM, read-out: Polymerase HCMV, percent inhibition at the given concentration) turned out to be 39%.
Compound `O=C(NCc1ccc(Cl)cc1)c1cn2c3c(cc(CN4CCOCC4)cc3c1=O)CN(Cc1ccccc1)C(=O)C2` [Example 14, 2-Benzyl-N-(4-chlorobenzyl)-10-(4-morpholinylmethyl)-3,8-dioxo-1,2,3,4-tetrahydro-8H-[1,4]diazepino[6,7,1-ij]quinoline-7-carboxamide] registered an IC50 against HCMV polymerase of 6000 nM.
With `CN1COc2cc(C#CCO)cc3c(=O)c(C(=O)NCc4ccc(Cl)cc4)cn1c23` [Example 15, N-(4-Chlorobenzyl)-9-(3-hydroxyprop-1-ynyl)-3-methyl-7-oxo-2,3-dihydro-7H-[1,3,4]oxadiazino[6,5,4-ij]quinoline-6-carboxamide], the melting point was 231 to 233 °C. The compound further returned an IC50 against HCMV polymerase of 4190 nM.
For `CN1CCc2cc(C#CCO)cc3c(=O)c(C(=O)NCc4ccc(Cl)cc4)cn1c23` [Example 16, N-(4-Chlorobenzyl)-5-(3-hydroxyprop-1-ynyl)-1-methyl-7-oxo-2,3-dihydro-1H,7H-pyrido[3,2,1-ij]cinnoline-8-carboxamide] the same measures were 165 to 167 °C and 7950 nM.

A word on the melting point: it is the temperature, or range, at which the solid turns liquid. For orientation: IC50 means the concentration at which inhibition is half-maximal.
